Measurements from the supplement of paper PMC10307832.

What was measured:
Test in all cases: relative viability (nuclei count vs DMSO), 5 days (fraction); higher = more cells survive
NCI-H647 = test system: NCI-H647
How it was run: (§1)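 One day after seeding in 1536-well plates, lung cancer cell lines were dosed by pin tool. Dosing was either single-drug or a fixed anchor-drug dose plus five library-drug doses (not always all listed) in √10 steps. After 5 days, nuclei were stained in one fix-and-stain step and counted on 4× images, and relative viability is the nuclei count of treated wells over that of vehicle wells, given as the median of duplicate plates.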

NCI-H1395 = test system: NCI-H1395
How it was run: as §1

LCLC-97TM1 = test system: LCLC-97TM1
How it was run: as §1

NCI-H838 = test system: NCI-H838
How it was run: as §1

NCI-H2085 = test system: NCI-H2085
How it was run: as §1

NCI-H322M = test system: NCI-H322M
How it was run: as §1

NCI-H2405 = test system: NCI-H2405
How it was run: as §1

201T = test system: 201T
How it was run: as §1

NCI-H661 = test system: NCI-H661
How it was run: as §1

NCI-H1355 = test system: NCI-H1355
How it was run: as §1

LU99A = test system: LU99A
How it was run: as §1

NCI-H650 = test system: NCI-H650
How it was run: as §1

NCI-H2009 = test system: NCI-H2009
How it was run: as §1

NCI-H23 = test system: NCI-H23
How it was run: as §1

NCI-H2228 = test system: NCI-H2228
How it was run: as §1

NCI-H2126 = test system: NCI-H2126
How it was run: as §1

HCC-78 = test system: HCC-78
How it was run: as §1

BEN = test system: BEN
How it was run: as §1

EPLC-272H = test system: EPLC-272H
How it was run: as §1

PC-14 = test system: PC-14
How it was run: as §1

HCC-15 = test system: HCC-15
How it was run: as §1

NCI-H460 = test system: NCI-H460
How it was run: as §1

## Nc1cccc2c1CN(C1CCC(=O)NC1=O)C2=O (stereo not drawn) [Lenalidomide] + Cc1nc(NC(=O)N2CCC[C@H]2C(N)=O)sc1-c1ccnc(C(C)(C)C(F)(F)F)c1 [Alpelisib] (partner 2 µM)
NCI-H647; first compound 0.253 µM
  relative viability: 1.22
NCI-H647; first compound 0.8 µM
  relative viability: 1.14
NCI-H647; first compound 2.53 µM
  relative viability: 1.1
NCI-H647; first compound 8 µM
  relative viability: 1.12
NCI-H1395; first compound 0.253 µM
  relative viability: 0.946
NCI-H1395; first compound 2.53 µM
  relative viability: 1.06
NCI-H1395; first compound 8 µM
  relative viability: 0.948
LCLC-97TM1; first compound 0.8 µM
  relative viability: 0.236
LCLC-97TM1; first compound 2.53 µM
  relative viability: 0.308
LCLC-97TM1; first compound 8 µM
  relative viability: 0.164
NCI-H838; first compound 0.253 µM
  relative viability: 0.97
NCI-H838; first compound 0.8 µM
  relative viability: 1
NCI-H838; first compound 2.53 µM
  relative viability: 1.25
NCI-H838; first compound 8 µM
  relative viability: 0.896
NCI-H2085; first compound 0.253 µM
  relative viability: 1.01
NCI-H2085; first compound 0.8 µM
  relative viability: 0.997
NCI-H2085; first compound 2.53 µM
  relative viability: 0.952
NCI-H2085; first compound 8 µM
  relative viability: 0.972
NCI-H322M; first compound 0.253 µM
  relative viability: 0.745
NCI-H322M; first compound 0.8 µM
  relative viability: 0.887
NCI-H322M; first compound 2.53 µM
  relative viability: 0.837
NCI-H322M; first compound 8 µM
  relative viability: 0.66
NCI-H2405; first compound 0.253 µM
  relative viability: 0.672
NCI-H2405; first compound 0.8 µM
  relative viability: 0.83
NCI-H2405; first compound 2.53 µM
  relative viability: 0.843
NCI-H2405; first compound 8 µM
  relative viability: 0.563
201T; first compound 0.253 µM
  relative viability: 1.11
201T; first compound 0.8 µM
  relative viability: 1.15
201T; first compound 2.53 µM
  relative viability: 1.06
201T; first compound 8 µM
  relative viability: 0.984
NCI-H661; first compound 0.253 µM
  relative viability: 0.957
NCI-H661; first compound 0.8 µM
  relative viability: 0.447
NCI-H661; first compound 2.53 µM
  relative viability: 0.458
NCI-H661; first compound 8 µM
  relative viability: 0.544
NCI-H1355; first compound 0.253 µM
  relative viability: 0.806
NCI-H1355; first compound 0.8 µM
  relative viability: 0.645
NCI-H1355; first compound 2.53 µM
  relative viability: 0.848
NCI-H1355; first compound 8 µM
  relative viability: 0.454
LU99A; first compound 0.253 µM
  relative viability: 0.47
LU99A; first compound 0.8 µM
  relative viability: 0.501
LU99A; first compound 2.53 µM
  relative viability: 0.501
LU99A; first compound 8 µM
  relative viability: 0.317
NCI-H650; first compound 0.253 µM
  relative viability: 1.22
NCI-H650; first compound 2.53 µM
  relative viability: 1.41
NCI-H650; first compound 8 µM
  relative viability: 1.15
NCI-H2009; first compound 0.253 µM
  relative viability: 1.1
NCI-H2009; first compound 0.8 µM
  relative viability: 1.12
NCI-H2009; first compound 2.53 µM
  relative viability: 1.19
NCI-H2009; first compound 8 µM
  relative viability: 1.21
NCI-H23; first compound 0.253 µM
  relative viability: 0.792
NCI-H23; first compound 0.8 µM
  relative viability: 0.581
NCI-H23; first compound 2.53 µM
  relative viability: 0.846
NCI-H23; first compound 8 µM
  relative viability: 0.47
NCI-H2228; first compound 0.253 µM
  relative viability: 0.851
NCI-H2228; first compound 0.8 µM
  relative viability: 0.736
NCI-H2228; first compound 2.53 µM
  relative viability: 0.785
NCI-H2228; first compound 8 µM
  relative viability: 0.817
NCI-H2126; first compound 0.253 µM
  relative viability: 0.735
NCI-H2126; first compound 0.8 µM
  relative viability: 0.75
NCI-H2126; first compound 2.53 µM
  relative viability: 0.646
NCI-H2126; first compound 8 µM
  relative viability: 0.55
HCC-78; first compound 0.253 µM
  relative viability: 0.381
HCC-78; first compound 0.8 µM
  relative viability: 0.339
HCC-78; first compound 2.53 µM
  relative viability: 0.314
HCC-78; first compound 8 µM
  relative viability: 0.209
BEN; first compound 0.253 µM
  relative viability: 1.05
BEN; first compound 0.8 µM
  relative viability: 1.01
BEN; first compound 2.53 µM
  relative viability: 1.16
BEN; first compound 8 µM
  relative viability: 0.788
EPLC-272H; first compound 0.253 µM
  relative viability: 0.975
EPLC-272H; first compound 2.53 µM
  relative viability: 1.03
EPLC-272H; first compound 8 µM
  relative viability: 0.684
PC-14; first compound 0.253 µM
  relative viability: 0.899
PC-14; first compound 0.8 µM
  relative viability: 0.93
PC-14; first compound 2.53 µM
  relative viability: 0.982
PC-14; first compound 8 µM
  relative viability: 0.9
HCC-15; first compound 0.253 µM
  relative viability: 1.02
HCC-15; first compound 2.53 µM
  relative viability: 0.886
HCC-15; first compound 8 µM
  relative viability: 0.865
NCI-H460; first compound 0.253 µM
  relative viability: 0.363
NCI-H460; first compound 0.8 µM
  relative viability: 0.492
NCI-H460; first compound 2.53 µM
  relative viability: 0.667
NCI-H460; first compound 8 µM
  relative viability: 0.57
